This note sets out measurements from patent publication EP0539587A1, “ANTI[…]” (TSUMURA & CO., priority 1991, dated 1992).

Structures are written as SMILES. Where a name gives a salt, the structure may show the parent alone.

Assay [1] addresses Human immunodeficiency virus reverse transcriptase (Human immunodeficiency virus type 1 group M subtype B, UniProt P04585). Kind of assay: Effects on reverse transcriptase activity ([3H]deoxythymidine triphosphate uptake into DNA). The format is biochemical. As to conditions: reverse transcriptase inhibitory activity; 30 minutes at 37°C; polyrA-oligo dT template-primer; read-out: 50% inhibitory concentration (IC50) (converted). How it is done:
A reaction mixture having the composition indicated below was prepared.
50 µl of this reaction mixture was allowed to react for 30 minutes at 37°C.
Quantitative determination of the reaction product in the form of DNA was performed by measuring the uptake of the radioactivity of [³H]deoxythymidine triphosphate into DNA using ion exchange filter paper, taking that to represent reverse transcriptase inhibitory activity, and calculating the 50% inhibitory concentration (IC₅₀) of the test compound.

Assay [2] relates to human immunodeficiency virus. Kind of assay: Test of anti-AIDS virus activity using clone H9 cells (p24 antigen in culture supernatant). The format is cell-based. As to conditions: Human immunodeficiency virus 1, 120 h, p24 antigen in culture supernatant after 5 days, read-out: Rate of Inhibition (%). How it is done:
1 x 10⁶ clone H9 cells (©T-cells) were placed in individual culture tubes. The serially diluted test drug was then placed in each tube. Roughly 100TCID₅₀ of human immunodeficiency virus (culture supernatant of H9/HTLV-IIIB cells) were then placed in each tube to infect the above-mentioned cells. After incubating the tubes for 1 hour at 37°C in the presence of 5% CO₂, the unabsorbed viral particles and test substance were removed by centrifugal separation (x3000 g, 5 minutes). Moreover, after again centrifugally washing (x3000 g, 5 minutes) the cells with fresh culture liquid, fresh culture liquid was added to each tube to prepare cell suspensions having a concentration of 0.2 x 10⁶ cells per milliliter. 0.5 ml of these cell suspensions were added to each well of a 24 well culture plate containing 0.5 ml of the serially diluted test drug. After incubating this plate for 5 days at 37°C in the presence of 5% CO₂, the amount of p24, which is the human immunodeficiency virus antigen in the culture supernatant, was measured, followed by calculation of the rate of inhibition (%) at the concentrations of the test drug indicated below.

As a reminder, the inhibition is the percentage by which the read-out fell short of the control. `O=C(O)/C=C(\C(=O)O[C@H]1[C@@H]2OC(=O)c3cc(O)c(O)c(O)c3-c3c(cc(O)c(O)c3O)C(=O)OC[C@H]1O[C@@H](OC(=O)c1cc(O)c(O)c(O)c1)[C@@H]2O)[C@H]1c2c(cc(O)c(O)c2O)C(=O)O[C@@H]1C(=O)O` [Specific Example 1, repandusinic acid A monopotassium salt]: the IC50 in assay [1] was 103 nM. Also, the inhibition at 0.195 µg/mL in assay [2] (0.195 µg/ml) was found to be 27.8%. For the same compound, the inhibition at 3.125 µg/mL in assay [2] (3.125 µg/ml) amounted to 66.7%. Also, the inhibition at 12.5 µg/mL in assay [2] (12.5 µg/ml) was 94.4%.
